Measured values published in paper PMC7156724, “Potent BRD4 inhibitor suppresses cancer cell-macrophage interaction” (Nature Communications, 2020).
Where “and” joins values, the source holds several entries; their conditions need not be identical. Equal values may be shown once.

Molecular target: T1, BRD4 (BD1+BD2) (Homo sapiens, UniProt O60885)
T1 construct: purchased BPS 32612
Experiment: BRD4 (BD1+BD2) TR-FRET binding assay
Conditions: for Biochemical activity against BRD4 (BD1 + BD2): Fig.1b, replicates; for IC50: average IC50, nM, read-out: IC50, biochemical activity against BRD4 (BD1 + BD2)
Excerpt: 2. BRD4 binding assay. The inhibitory effects of NHWD-530, NHWD-540, NHWD- […]
(BPS, Cat # 32612) per manufacturer’s instructions. […]

| Biochemical activity against BRD4 (BD1 + BD2) (concentration(nM) 0.0339849) | Biochemical activity against BRD4 (BD1 + BD2) (concentration(nM) 0.137272) | Biochemical activity against BRD4 (BD1 + BD2) (concentration(nM) 0.614394) | Biochemical activity against BRD4 (BD1 + BD2) (concentration(nM) 1.09152) | Biochemical activity against BRD4 (BD1 + BD2) (concentration(nM) 1.56864) | Biochemical activity against BRD4 (BD1 + BD2) (concentration(nM) 2.04576) | Biochemical activity against BRD4 (BD1 + BD2) (concentration(nM) 2.52288) | Biochemical activity against BRD4 (BD1 + BD2) (concentration(nM) 3) | IC50 [nM] | Compound |
| --- | --- | --- | --- | --- | --- | --- | --- | --- | --- |
| 0.9223 and 6.575 | 8.361 and 5.3853 | 7.766 and 14.6266 | 25.6174 and 20.5594 | 58.197 | 88.9914 and 87.355 | 96.1321 and 98.9586 | 102.231 and 101.636 | 28.5 | Cc1nnn(C)c1-c1cnc2c3cc4c(cc3n([C@H](c3ccccc3)C3CCOCC3)c2c1)C(=O)N(C)C4 [NHWD-530] |
| 5.534 and 1.544 | 6.278 and 5.237 | 11.7822 and 11.931 | 36.626 and 29.039 | 74.1149 and 79.0241 | 94.7932 and 97.1735 | 100.446 and 100.744 | 101.488 and 101.636 | 18.1 | Cc1nnn(C)c1-c1cnc2c3cc4c(cc3n([C@H](c3ccccc3)C3CCOCC3)c2c1)CN(C)C4=O [NHWD-540] |
| 10.1562 and 13.125 | 5 and 10.625 | 14.5312 and 15.4688 | 33.5938 and 32.5 | 66.25 and 68.125 | 95.625 and 95 | 101.719 | 102.344 and 102.5 | 19.5 | Cc1nnn(C)c1-c1cnc2c3c4c(ccc3n([C@H](c3ccccc3)C3CCOCC3)c2c1)C(=O)N(C)C4 [NHWD-560] |
